Measurements from patent publication US20250100996A1, “HETEROCYCLOALKYL AND HETEROARYL COMPOUNDS AND PHARMACEUTICAL COMPOSITIONS THAT MODULATE IKZF2” (Plexium, Inc., priority 2021, published 2025).

How the values were obtained:
[1] = target: T1, human E3 ligase component cereblon (CRBN) (Homo sapiens, UniProt Q96SW2); assay: Cereblon (CRBN) target engagement, NanoBRET TE Intracellular E3 Ligase Assay in transfected HEK-293T cells; conditions: read-out: CRBN Binding EC50
T1 construct: host or cells: HEK293T
Procedure: HEK293T cells were harvested ca. 75% confluent with trypsin and plated (500,000 cells/well) in a 6-well tissue culture plate in 2 mL of Dulbecco's Modified Eagle Medium (DMEM)^+10% Fetal Bovine Serum (FBS) and incubated overnight at 37° C.
The NanoLuc-CRBN fusion vector (Nluc-CRBN; Promega) contains the coding region of human E3 ligase component cereblon (CRBN) fused to the C-terminus of the NanoLuc luciferase coding region. A mixture of 10 ng Nluc-CRBN and 990 ng DDB1 Expression Vector (Promega) was added to 125 μL Opti-Minimum Essential Medium (Opti-MEM™; Thermo Fisher) along with […] P3000 reagent (Thermo Fisher) in a 1.5 mL epppendorf tube. This solution was added to Lipofectamine 3000 transfection reagent (5 μL; Thermo Fisher) in Opti-MEM (125 μL), mixed well, and incubated for 15 minutes at room temperature. The transfection mixture was added dropwise to cells and incubated overnight at 37° C., 5% CO2. Following transfection, cells were washed once with PBS, and trypsin (250 μL) was added and incubated 30-45 see to dislodge cells. Complete media (2 mL) was added to resuspend cells to form a single cell suspension. Cells were centrifuged at 320×g for 5 min at room temperature, the supernatant was removed, and the cell pellet resuspended in Opti-MEM (3 mL; wash step repeated ×2). After final resuspension in 5 mL Opti-MEM, cells were counted and resuspended at 200,000 cells/mL in Opti-MEM.
Cereblon target engagement was monitored by Bioluminescence Resonance Energy Transfer (BRET) in transfected HEK-293T cells using the NanoBRET TE Intracellular E3 Ligase Assay (Promega). Briefly, 384-well plates (white opaque plates, Corning 3574, low binding surface) were seeded with transfected HEK-293T cells (38 μL/well). 2 μL of 10 μM CRBN tracer (diluted 1:5 in Tracer Dilution Buffer) was added to each well. Plates were centrifuged at 320×g for 1 min at room temperature. Test compounds were added in a 11-point dilution series (typically 10 μM to 100 pM) using a TECAN D300e Digital Dispenser. Plates were shaken for 2 minutes on a microplate shaker to mix compounds. Plates were centrifuged at 320×g for 1 min at room temperature, and subsequently incubated for 2 hours at 37° C.
After incubation, plates were allowed to cool to room temperature for 15 minutes. 20 μL of 3× Complete NanoBRET™ Nano-Glo® Substrate plus Inhibitor Solution (Promega, 1:166 Substrate and 1:500 dilution of Extracellular NanoLuc® Inhibitor diluted in Opti-MEM) were added to each well. Plates were incubated with shaking at room temperature for 3 minutes covered with foil. Plates were read on a CLARIOstar microplate reader (BMG LabTech), measuring at 450 nm (donor emission) and 610 nm (acceptor emission). The IC50 values were determined by regression to best fit four-parameter logistic curves using GraphPad Prism.

IKZF2 (Helios) = target: T2, IKZF2 (Helios) (Homo sapiens, UniProt Q9UKS7); assay: IKZF2 reporter degradation assay (HEK 293T IKZF2-mNeonGreen reporter cell line); format: cell-based; conditions: HEK 293T IKZF2-mNeonGreen reporter, 24 hours incubation
T2 construct: Leu-Asp junction (codons ctcgac before the linker); mScarlet (behind P2A) (C, cleaved yes); expressed in transfected cells
Source text: Polycistronic plasmids were constructed for the mammalian expression of fluorescent reporter fusions of human transcription factors IKZF1 (Ikaros), IKZF2 (Helios), and IKZF3 (Aiolos). The respective protein sequences had their C-terminal end joined to a GGGGS linker repeated three times followed by mNeonGreen, P2A sequence, and mScarlet. The DNA sequences of the open reading frames are as follows:
IKZF1, IKZF2, and IKZF3 constructs were cloned into the UCOE Hygromycin expression vectors (Millipore Sigma). Reporter constructs were transfected using cationic lipid reagents into adherent HEK 293T cells and stable integrants were selected by treatment with 200 μg/mL hygromycin B. Clonal populations were obtained from the population of stable integrants either by limiting dilution or fluorescence activated cell sorting.
The clonal stable cell lines were maintained under constant 200 μg/mL hygromycin B selection while being passaged for use in the degradation assays. […] The fluorescence intensity of the IKZF1/2/3-mNeonGreen (FITC channel) and mScarlet (PE channel) reporters were routinely analyzed by flow cytometry to confirm consistent expression levels between experiments.
The IKZF1/IKZF2/IKZF3 degradation assays were carried out by harvesting the HEK 293T reporter cell lines and resuspending the cells in media formulated for reduced background fluorescence (FluoroBrite; Thermo Fisher). The respective cell lines were seeded at a density of 4000 cells/well into black-walled 384-well optical grade assay tissue culture plates. The cells were incubated overnight at 37° C. to allow for attachment to the assay plate. Dilutions of the compounds were prepared in DMSO from 10 mM compound stocks. The assay plates were treated with appropriate concentrations of the compounds by dispensing the DMSO dilutions in quadruplicate wells with an upper limit of 0.5% final DMSO.
After 24 hours incubation with the compounds, the assay plates were imaged on an ImageXpress Pico microscopy system (cells maintained at 37° C. during imaging) to obtain the fluorescent readouts. The assay plates were imaged in the FITC and Tetramethylrhodamine (TRITC) channels to obtain the mNeonGreen fluorescence intensity (reporter degradation data) and mScarlet fluorescence intensity (for cell segmentation). 293T-IKZF1 and 293T-IKZF3 reporter cell lines were imaged with exposures of 500 milliseconds (ms) for both FITC and TRITC channels, while the 293T-IKZF2 reporter cell line was imaged with exposures of 1000 ms for FITC and 1250 ms for TRITC. The resulting data was analyzed with Cell Reporter Xpress software using the 2-channel cell scoring analysis with a “percent positive” readout. The TRITC channel was selected for the “nuclei” segmentation with a threshold of 20 while the FITC channel was selected for the “Marker 1” segmentation and a threshold of 100 for the IKZF1 and IKZF3 reporter lines. […] The minimum segmentation width was set to 6 micrometers and the maximum segmentation width was set to 15 micrometers for all cell lines. The DC50 calculations were determined by regression to best fit four-parameter logistic curves using GraphPad Prism.

T1 sequence (Q96SW2 whole entry): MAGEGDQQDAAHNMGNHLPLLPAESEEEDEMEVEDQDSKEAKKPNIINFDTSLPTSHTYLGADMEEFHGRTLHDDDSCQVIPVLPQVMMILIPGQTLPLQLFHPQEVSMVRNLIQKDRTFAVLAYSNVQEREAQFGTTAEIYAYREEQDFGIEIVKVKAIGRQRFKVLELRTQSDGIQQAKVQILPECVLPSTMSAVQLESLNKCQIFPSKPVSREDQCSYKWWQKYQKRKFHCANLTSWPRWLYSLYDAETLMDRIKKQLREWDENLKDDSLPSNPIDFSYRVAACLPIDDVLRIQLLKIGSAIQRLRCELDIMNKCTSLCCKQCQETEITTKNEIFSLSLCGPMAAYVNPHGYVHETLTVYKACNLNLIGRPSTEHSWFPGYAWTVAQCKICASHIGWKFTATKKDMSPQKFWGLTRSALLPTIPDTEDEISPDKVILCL
T1 sequence (Q16531 whole entry partner): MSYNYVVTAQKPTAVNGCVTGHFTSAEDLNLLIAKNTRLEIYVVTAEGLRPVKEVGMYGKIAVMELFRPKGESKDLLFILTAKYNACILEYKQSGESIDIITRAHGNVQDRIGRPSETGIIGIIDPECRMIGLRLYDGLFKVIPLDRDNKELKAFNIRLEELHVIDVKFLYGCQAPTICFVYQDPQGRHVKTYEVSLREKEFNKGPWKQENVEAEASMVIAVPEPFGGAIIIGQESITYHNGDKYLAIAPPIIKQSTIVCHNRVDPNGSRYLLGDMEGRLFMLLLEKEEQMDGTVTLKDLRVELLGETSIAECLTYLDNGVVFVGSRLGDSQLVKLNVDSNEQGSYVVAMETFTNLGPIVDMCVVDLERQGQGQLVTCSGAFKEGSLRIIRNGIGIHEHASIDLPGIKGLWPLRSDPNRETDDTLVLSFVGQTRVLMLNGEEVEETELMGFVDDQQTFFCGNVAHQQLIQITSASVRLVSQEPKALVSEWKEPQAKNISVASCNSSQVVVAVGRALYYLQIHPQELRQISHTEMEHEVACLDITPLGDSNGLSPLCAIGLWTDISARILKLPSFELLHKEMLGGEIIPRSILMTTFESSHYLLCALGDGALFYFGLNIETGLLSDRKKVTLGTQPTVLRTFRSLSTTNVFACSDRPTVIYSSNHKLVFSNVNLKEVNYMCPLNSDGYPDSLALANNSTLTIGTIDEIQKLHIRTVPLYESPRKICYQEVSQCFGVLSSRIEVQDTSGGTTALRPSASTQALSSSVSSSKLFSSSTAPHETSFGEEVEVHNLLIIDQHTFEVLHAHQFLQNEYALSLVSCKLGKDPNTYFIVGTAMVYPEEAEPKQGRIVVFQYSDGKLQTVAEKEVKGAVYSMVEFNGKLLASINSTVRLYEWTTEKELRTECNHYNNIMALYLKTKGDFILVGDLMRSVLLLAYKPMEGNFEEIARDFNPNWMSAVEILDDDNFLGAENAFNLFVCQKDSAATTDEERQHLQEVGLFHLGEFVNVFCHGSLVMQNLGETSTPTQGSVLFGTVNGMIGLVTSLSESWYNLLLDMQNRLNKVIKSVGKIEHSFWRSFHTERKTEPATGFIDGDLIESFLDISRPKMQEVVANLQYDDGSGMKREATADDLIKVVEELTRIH
T2 sequence (Q9UKS7 whole entry): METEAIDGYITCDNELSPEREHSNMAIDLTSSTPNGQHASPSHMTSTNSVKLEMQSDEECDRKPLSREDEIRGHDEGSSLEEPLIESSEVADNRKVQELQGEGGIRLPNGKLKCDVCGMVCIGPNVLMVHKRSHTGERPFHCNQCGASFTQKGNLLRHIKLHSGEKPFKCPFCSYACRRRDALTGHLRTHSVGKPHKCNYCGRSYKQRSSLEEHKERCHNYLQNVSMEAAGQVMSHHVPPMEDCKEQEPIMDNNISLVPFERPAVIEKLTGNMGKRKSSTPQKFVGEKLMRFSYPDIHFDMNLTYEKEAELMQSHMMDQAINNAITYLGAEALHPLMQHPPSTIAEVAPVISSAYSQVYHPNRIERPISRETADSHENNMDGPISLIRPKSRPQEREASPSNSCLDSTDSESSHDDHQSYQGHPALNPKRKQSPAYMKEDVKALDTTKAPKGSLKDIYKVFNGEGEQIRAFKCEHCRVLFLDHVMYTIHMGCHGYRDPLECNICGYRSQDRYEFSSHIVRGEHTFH
T2 sequence (Q96SW2 whole entry, further chain): as the sequence (Q96SW2 whole entry) above
T2 sequence (Q16531 whole entry partner): as the sequence (Q16531 whole entry partner) above

Structure (SMILES) | EC50 [1] | DC50 (IKZF2 (Helios))
O=C1CCC(N2Cc3cc(O[C@@H]4CCCC[C@@H]4N4CC(c5ccc(Cl)cn5)C4)ccc3C2=O)C(=O)N1 (single isomer, unassigned) [Compound 101-B] | 11 nM | > 30 µM
O=C1CCC(N2Cc3cc(OC4CCCC4N4CC(c5ncc(F)cn5)C4)ccc3C2=O)C(=O)N1 (stereo not drawn) [Compound 158-B, 3-(5-((2-(3-(5-fluoropyrimidin-2-yl)azetidin-1-yl)cyclopentyl)oxy)-1-oxoisoindolin-2-yl)piperidine-2,6-dione] | 88 nM | –
O=C1CCC(N2Cc3cc(O[C@@H]4CCCC[C@@H]4N4CC(c5cncc(Cl)c5)C4)ccc3C2=O)C(=O)N1 (stereo partly drawn) [Compound 105-B, 3-(5-(((1R,2S)-2-(3-(5-chloropyridin-3-yl)azetidin-1-yl)cyclohexyl)oxy)-1-oxoisoindolin-2-yl)piperidine-2,6-dione] | 29 nM | > 30 µM
O=C1CCC(N2Cc3cc(O[C@@H]4CCCC[C@@H]4N4CC(c5ncncc5Cl)C4)ccc3C2=O)C(=O)N1 (single isomer, unassigned) [Compound 94-B] | 29 nM | > 30 µM
O=C1CCC(N2Cc3cc(O[C@@H]4CCCC[C@H]4N4CC(c5ncc(C6CC6)cn5)C4)ccc3C2=O)C(=O)N1 (single isomer, unassigned) [Compound 132-B] | 3 nM | > 30 µM
O=C1CCC(N2Cc3cc(O[C@@H]4CCCC[C@@H]4N4CC(c5ncc(C(F)(F)F)cn5)C4)ccc3C2=O)C(=O)N1 (single isomer, unassigned) [Compound 119-B] | 24 nM | > 30 µM
O=C1CCC(N2Cc3cc(O[C@@H]4CCCC[C@@H]4N4CC(c5ccncc5F)C4)ccc3C2=O)C(=O)N1 (single isomer, unassigned) [Compound 104-B] | 38 nM | > 30 µM
O=C1CCC(N2Cc3cc(O[C@@H]4CCCC[C@H]4N4CC(c5ncc(C6CC6)cn5)C4)ccc3C2=O)C(=O)N1 (single isomer, unassigned) [Compound 133-B] | 10 nM | > 30 µM
O=C1NC(=O)C2(N3Cc4cc(O[C@@H]5CCCC[C@@H]5N5CC(c6ccncc6)C5)ccc4C3=O)CC1C2 (racemic) [Compound 159-B, Rac-1-(1-oxo-5-(((cis)-2-(3-(pyridin-4-yl)azetidin-1-yl)cyclohexyl)oxy)isoindolin-2-yl)-3-azabicyclo[3.1.1]heptane-2,4-dione] | > 10000 nM | –
O=C1CCC(N2Cc3cc(O[C@H]4CCCC[C@H]4N4CC(c5ccc(Cl)cn5)C4)ccc3C2=O)C(=O)N1 (single isomer, unassigned) [Compound 97-B] | 11 nM | > 30 µM
O=C1CCC(N2Cc3cc(O[C@@H]4CCCC[C@@H]4N4CC(c5ccncc5Cl)C4)ccc3C2=O)C(=O)N1 (single isomer, unassigned) [Compound 96-B] | 30 nM | > 30 µM
O=C1CCC(N2Cc3cc(O[C@H]4CCCC[C@@H]4N4CC(c5ncc(Cl)cn5)C4)ccc3C2=O)C(=O)N1 (single isomer, unassigned) [Compound 110-B] | 32 nM | > 30 µM
O=C1NC(=O)C2(N3Cc4cc(OC5CCC[C@@H]5N5CC(c6ncc(Cl)cn6)C5)ccc4C3=O)CC1C2 (mixture of isomers) [Compound 156-B, Rac-1-(5-(((cis)-2-(3-(5-chloropyrimidin-2-yl)azetidin-1-yl)cyclopentyl)oxy)-1-oxoisoindolin-2-yl)-3-azabicyclo[3.1.1]heptane-2,4-dione] | > 10000 nM | –
Cc1cnc(C2CN([C@H]3CCCC3Oc3ccc4c(c3)CN(C35CC(C3)C(=O)NC5=O)C4=O)C2)o1 (mixture of isomers) [Compound 144-B, Rac-1-(5-(((cis)-2-(3-(5-methyloxazol-2-yl)azetidin-1-yl)cyclopentyl)oxy)-1-oxoisoindolin-2-yl)-3-azabicyclo[3.1.1]heptane-2,4-dione] | > 10000 nM | –
O=C1CCC(N2Cc3cc(O[C@H]4CCCC[C@H]4N4CC(c5ncc(C(F)(F)F)cn5)C4)ccc3C2=O)C(=O)N1 (single isomer, unassigned) [Compound 122-B] | 13 nM | > 30 µM
Cc1cnc(C2CN([C@H]3CCCC[C@@H]3Oc3ccc4c(c3)CN(C35CC(C3)C(=O)NC5=O)C4=O)C2)o1 (racemic) [Compound 150-B, Rac-1-(5-(((trans)-2-(3-(5-methyloxazol-2-yl)azetidin-1-yl)cyclohexyl)oxy)-1-oxoisoindolin-2-yl)-3-azabicyclo[3.1.1]heptane-2,4-dione] | > 10000 nM | –
O=C1CCC(N2Cc3cc(O[C@H]4CCCC[C@@H]4N4CC(c5ncc(Br)cn5)C4)ccc3C2=O)C(=O)N1 (single isomer, unassigned) [Compound 107-B] | 22 nM | > 30 µM
Cc1cnc(C2CN([C@H]3CCCC3Oc3ccc4c(c3)CN(C35CC(C3)C(=O)NC5=O)C4=O)C2)o1 (mixture of isomers) [Compound 145-B, Rac-1-(5-(((trans)-2-(3-(5-methyloxazol-2-yl)azetidin-1-yl)cyclopentyl)oxy)-1-oxoisoindolin-2-y1)-3-azabicyclo[3.1.1]heptane-2,4-dione] | > 10000 nM | –
O=C1NC(=O)C2(N3Cc4cc(O[C@H]5CCCC[C@@H]5N5CC(c6ccncc6)C5)ccc4C3=O)CC1C2 (racemic) [Compound 160-B, Rac-1-(1-oxo-5-(((trans)-2-(3-(pyridin-4-yl)azetidin-1-yl)cyclohexyl)oxy)isoindolin-2-yl)-3-azabicyclo[3.1.1]heptane-2,4-dione] | > 10000 nM | –
Cc1cnc(C2CN([C@H]3CCCC[C@H]3Oc3ccc4c(c3)CN(C35CC(C3)C(=O)NC5=O)C4=O)C2)o1 (racemic) [Compound 149-B, Rac-1-(5-(((cis)-2-(3-(5-methyloxazol-2-yl)azetidin-1-yl)cyclohexyl)oxy)-1-oxoisoindolin-2-yl)-3-azabicyclo[3.1.1]heptane-2,4-dione] | > 10000 nM | –
O=C1NC(=O)C2(N3Cc4cc(OC5CCC[C@@H]5N5CC(c6ncc(Cl)cn6)C5)ccc4C3=O)CC1C2 (mixture of isomers) [Compound 157-B, Rac-1-(5-(((trans)-2-(3-(5-chloropyrimidin-2-yl)azetidin-1-yl)cyclopentyl)oxy)-1-oxoisoindolin-2-yl)-3-azabicyclo[3.1.1]heptane-2,4-dione] | > 10000 nM | –
